Source: patent publication US20160166507A1, “NANOEMULSIONS OF HYDROPHOBIC PLATINUM DERIVATIVES” (NEMUCORE MEDICAL INNOVATIONS, INC., priority 2013, published 2016)

Columns and labels:
[1] = cited from earlier work
[2] = test system: SKOV-3 Ovarian Cancer Cells; assay: MTT cytotoxicity assay with combination index analysis; type: cell-based, human; conditions: for Degree of Combination Effect: Pt complex with CER
Procedure: In order to determine if the nanoemulsion formulations according to the disclosure produce a cytotoxic effect, the following experiments were done on SKOV3 cells.
A tetrazolium (MTT) assay was performed, which measures the activity of cellular enzymes that reduces the MTT dye to insoluble formazan. SKOV3 cells were treated with corresponding test nanoemulsions or control solutions as indicated below in Table VI. Polyethylenimine at 50 μg/ml was used as a positive control for cytotoxicity. The effect of cis-Pt in solution, nanoemulsion formulations, and EGFR-targeted nanoemulsion formulations of the disclosure on the viability of ovarian SKOV3 cells were studied and measured after 72 hr treatment. After the completion of treatment, cells were incubated with MTT reagent (50 μg/well) for 2 hr. The resulting formazan crystals were dissolved in dimethyl sulfoxide ([…]) and measured at 570 nm in the Plate reader (Synergy HT, Biotek Instruments, Winooski, Vt.).
Values are shown as mean±SD, n=8. All IC50 values were obtained by analyzing the MTT assays results using Graphpad Prism 5 scientific data analysis software.
The optimum concentration of multiple chemotherapeutic agents combined in the nanoemulsion formulations of the present disclosure can be determined by calculating the combination index from the dose response curves of the single agents (Chou (2006) Pharmacol. Rev. 58(3): 621-681). This method uses the isobologram equation below to determine combination index (CI): […]
where, “a” is the primary therapeutic IC50 in combination with secondary therapeutic at concentration “b.” “A” is the primary therapeutic IC50 without secondary therapeutic; and “B” is the secondary therapeutic IC50 in the absence of primary therapeutic. The CI represents the degree of interaction between two drugs regardless of mechanism. […]
For the nanoemulsion formulations of the present disclosure, the ratio of Pt:CER was determined in order to identify ratios that could reduce the IC50 of Pt.

[3] = test system: SKOV3 human ovary cancer cells; assay: In vivo therapeutic efficacy in mice injected ip with SKOV3 cells; design: species or system Nu/Nu female mice
Procedure: In order to determine if the nanoemulsion formulations according to the disclosure produce therapeutic efficacy against cancer in vivo, the following experiment was performed. Orthotropic tumors were developed in 30 Nu/Nu female mice, each weighing approximately 20 g (Charles River Laboratories, Cambridge, Mass.). The mice were injected intraperitoneally (ip) with 4×10^6 SKOV3 human ovary cancer cells (ATCC, Manassas, Va.) suspended in phosphate buffered saline100 μl PBS. The 30 mice were divided into 3 test groups of 10 individual mice. Each mouse was then dosed every 7 d for 5 wk with either nothing (control group) or 1 of 2 test compounds. The first test compound (cisplatin) was administered as a comparative sample in 5 mg/kg doses. The second test compound (EGFR-targeted nanoemulsion formulation containing Pt-MMA and ceramide in a 1:5 molar ratio) was administered in 3 cycles of 5 mg/kg platinum and an additional 2 cycles of 7.5 mg/kg platinum. The doses of Pt-MMA (21 mg/kg) and cis-Platin (5 mg/kg) were calculated so that animals received equivalent amounts of Pt. The survival time of each group of mice was determined and the median survival time (days) calculated using Graphpad Kaplan-Meyers survival analysis software on the basis of the observed survival time of each mouse.

[4] = dosed every 7 d for 5 wk, SKOV3, Nu/Nu mice

## N.N.O=C([O-])C1(C(=O)[O-])CCC1.[Pt+2] [carboplatin]
[1]
  half life (published values): 50.4 min

## cis-Diamine Pt (II) Chloride Monopalmitic Acid [Cisplatin-mono-palmitate]
[2]
  Degree of Combination Effect: synergistically

## N.N.[Cl][Pt][Cl] [Cisplatin in Solution, Cis-dichlorodiammine Pt (II)]
[3]; Kaplan-Meyers analysis, 10 mice per group
  Median Survival: 28 days
[3]; [4]
  Average Tumor Size at 21 Days (mm^3): 640 ± 314 mm^3
  Time for First Tumor to Reach 1000 mm^3: 17 days

## CCCCCCCCCCCCC/C=C/[C@H](O)[C@@H](CO)NC(=O)CCCCC [CER in Solution, C6-ceramide]
[2]; Homo sapiens, SK-OV-3, SKOV-3 cells, MTT, 72 hr treatment, mean±SD, n=8, read-out: IC50 (nM), inhibition of growth
  IC50: 10000 nM

## cis-Diamine Pt (II) Chloride Monomyristic Acid [Cisplatin-mono-myristate]
[2]
  Degree of Combination Effect: synergistically
